Experimental data reported in the NIST ThermoML archive (doi:10.1016/j.fluid.2012.01.007).

Experiment: excess molar enthalpy (molar enthalpy of mixing); xn = mol fraction of the nth substance listed
Details: 101 kPa, Liquid, Flow calorimetry

C1CCCCC1 [cyclohexane] + CCCCCO
x2 = 0
Details	excess molar enthalpy [kJ/mol]
298.15 K	0
313.15 K	0

CCCCCO [pentan-1-ol] + C1CCCCC1
excess molar enthalpy [kJ/mol]
Details	298.15 K	313.15 K
x1 = 0.05	0.333	0.449
x1 = 0.1	–	0.582
x1 = 0.1001	0.44	–
x1 = 0.1501	0.52	0.673
x1 = 0.2021	–	0.739
x1 = 0.2022	0.581	–
x1 = 0.2522	0.622	0.785
x1 = 0.3022	0.649	0.809
x1 = 0.3521	–	0.819
x1 = 0.3523	0.661	–
x1 = 0.4022	–	0.81
x1 = 0.4023	0.658	–
x1 = 0.4522	–	0.783
x1 = 0.4523	0.641	–
x1 = 0.5022	0.609	0.746
x1 = 0.5522	0.574	0.71
x1 = 0.6022	0.527	0.634
x1 = 0.6519	–	0.583
x1 = 0.6522	0.471	–
x1 = 0.7019	–	0.494
x1 = 0.7022	0.411	–
x1 = 0.7521	–	0.412
x1 = 0.7522	0.347	–
x1 = 0.8021	0.272	0.335
x1 = 0.8501	0.206	0.25
x1 = 0.9	0.138	0.16
x1 = 0.95	0.0677	0.0798
x1 = 1	0	0

CCCCCO [pentan-1-ol] + Cc1ccccc1
excess molar enthalpy [kJ/mol]
Details	298.15 K	313.15 K
x1 = 0.0511	0.539	0.596
x1 = 0.1004	0.76	0.884
x1 = 0.1497	0.884	–
x1 = 0.1498	–	1.05
x1 = 0.2012	0.973	–
x1 = 0.2013	–	1.17
x1 = 0.2507	1.02	–
x1 = 0.2508	–	1.23
x1 = 0.3003	1.05	1.25
x1 = 0.35	1.06	1.25
x1 = 0.3999	–	1.25
x1 = 0.4018	1.04	–
x1 = 0.4516	1.01	–
x1 = 0.4518	–	1.2
x1 = 0.5016	0.96	1.16
x1 = 0.5517	0.894	1.09
x1 = 0.6018	0.816	–
x1 = 0.6019	–	1
x1 = 0.65	0.728	–
x1 = 0.6501	–	0.904
x1 = 0.7003	0.632	–
x1 = 0.7004	–	0.794
x1 = 0.7507	0.529	–
x1 = 0.7508	–	0.667
x1 = 0.8012	0.415	–
x1 = 0.8013	–	0.54
x1 = 0.8497	0.312	–
x1 = 0.8498	–	0.409
x1 = 0.9004	0.203	–
x1 = 0.9005	–	0.267
x1 = 0.9491	0.102	–
x1 = 0.9492	–	0.132
x1 = 1	0	0

Cc1ccccc1 [toluene] + CCCCCO
x2 = 0
Details	excess molar enthalpy [kJ/mol]
298.15 K	0
313.15 K	0
